Data published in patent US11401264B2, “Heterocyclic compound” (Orizuru Therapeutics, Inc., priority 2018, dated 2022).

Tested on: cardiomyocytes from double knock-in human iPS cell lines (mCherry at TNNI3 locus)
Experiment: Experimental Example 1: mCherry (TNNI3 reporter) immunostaining measured by high contents screening
Assay type: cell-based
Design: key to average fluorescent intensity (at 30 μM): —: The symbol in Table 2 means that the average fluorescent intensity cannot be evaluated due to cell decrease
Conditions: read on 8th day, Alexa 647 anti-mCherry, control well 797; for average fluorescent intensity (at 1 μM): test compound 1 μM added on 3rd and 6th culture days; for average fluorescent intensity (at 30 μM): test compound 30 μM added on 3rd and 6th culture days
Method: For detection of cardiomyocyte maturation, double knock-in human iPS cell lines, in which reporter protein sequences, EmGFP (Sequence Number 1) and mCherry (Sequence Number 2) were inserted into gene loci for TNNI1 and TNNI3, respectively, were prepared (the human iPS cells were prepared from episomal vector (loaded gene; OCT3/4, KLF4, SOX2, L-MYC, LIN28, mouse p53DD) using PBMC (LP_167, Sample ID: 20130318) purchased from CTL (reference literature; Okita K, et al. Stem Cells. 2012 Nov. 29. doi: 10.1002/stem.1293)).
The maintenance culture of the above-mentioned reporter iPS cell lines was carried out by a conventional method (Okita K, et al. Stem Cells. 2012 Nov. 29. doi: 10.1002/stem.1293).
For differentiation induction into cardiomyocytes, the reporter iPS cell lines were treated with 0.5×TrypLE select (Life Technologies, diluted in 1/2 with 0.5 mM EDTA/PBS) for 4 to 5 minutes, and the cells were exfoliated using a cell scraper (IWAKI), and then dissociated into the single cell by pipetting. The medium was removed by centrifugation (1,000 rpm, 5 min), and the obtained cells were seeded on a bioreactor (ABLE) by 1×10^7 cells per 30 mL of the bioreactor, and then cultured in a medium prepared by adding 1% L-glutamine, transferrin 150 μg/mL, ascorbic acid 50 μg/mL (Sigma), monothioglycerol 4×10^−4 M, 10 μM Rock inhibitor (Y-27632), 2 ng/mL BMP4 (R&D) and 0.5% Matrigel (Growth Factor Reduced) to a medium after removal of solution C from StemFit AK02 (AJINOMOTO AK02, 400 mL of solution A and 100 mL of B solution, total 500 mL), at 37° C., under 5% oxygen condition (55 rpm, stirred suspension culture method) to form embryoid bodies (0 day).
Next day (1st day), 9 μL (final concentration 3 ng/mL) of 10 μg/mL activin A, 15 μL (final concentration 5 ng/mL) of 10 μg/mL bFGF and […] (final concentration 10 ng/mL) of 10 μg/mL BMP4 were added to the bioreactor, and the cells were cultured at 37° C. for additional 2 days, under 5% oxygen condition.
Then (3rd day), the obtained embryoid bodies were collected in a 50 mL centrifuge tube, and then subjected to centrifugation (200 g, 1 min). The medium was removed, and the embryoid bodies were cultured in a medium prepared by adding 1% L-glutamine, transferrin 150 μg/mL, ascorbic acid 50 μg/mL (Sigma), monothioglycerol 4×10^−4 M, 10 ng/mL VEGF, 1 μM IWP-3, 0.6 μM dorsomorphin and 5.4 μM SB431542 to a medium after removal of solution C from StemFit AK02 (AJINOMOTO AK02, 400 mL of solution A and 100 mL of B solution, total 500 mL), at 37° C. for 3 days, under 5% oxygen condition (55 rpm, stirred suspension culture method).
Then (6th day), the bioreactor was left to stand to precipitate the embryoid bodies, and 80 to 90% of the medium was removed. A medium prepared by adding 1% L-glutamine, transferrin 150 μg/mL, ascorbic acid 50 μg/mL (Sigma), monothioglycerol […] and 5 ng/mL VEGF to a medium after removal of solution C from StemFit AK02 (AJINOMOTO AK02, 400 mL of solution A and 100 mL of B solution, total 500 mL) was added to the bioreactor so that the total volume became 30 mL, and the embryoid bodies were cultured for 8 days, at 37° C., under 5% oxygen condition (55 rpm, stirred suspension culture method). During the culture, the medium was replaced with a medium under the same conditions every 2 to 3 days.
14th Day after the start of the differentiation induction, the embryoid bodies were treated with 2 mg/mL collagenase type I (Sigma) for 2 hr, and then with 0.25% trypsin/EDTA (Invitrogen) for 10 min. 50% FBS/IMDM (Thermo Fisher Science) was added thereto, and the embryoid bodies were dissociated into the single cell by pipetting, and then subjected to centrifugation (1,000 rpm, 5 minutes). […]

| SMILES | average fluorescent intensity (at 1 μM) | average fluorescent intensity (at 30 μM) |
| --- | --- | --- |
| O=C1c2ccc(N3CCCCC3)cc2CN1c1ccc2[nH]c(C3CCNCC3)nc2c1 [Example 39, 5-(piperidin-1-yl)-2-(2-(piperidin-4-yl)-1H-benzimidazol-5-yl)isoindolin-1-one] | 1042 | 1026 |
| O=C1c2ccc(N3CCCCC3)cc2CN1c1ccc2[nH]c(-c3ccno3)nc2c1 [Example 40, 2-(2-(1,2-oxazol-5-yl)-1H-benzimidazol-5-yl)-5-(piperidin-1-yl)isoindolin-1-one] | 1089 | 1327 |
| O=C1c2ccc(N3CCCCC3)cc2CN1c1ccc2[nH]c(-c3cccs3)nc2c1 [Example 41, 5-(piperidin-1-yl)-2-(2-(2-thienyl)-1H-benzimidazol-5-yl)isoindolin-1-one] | 1107 | 1571 |
| CC(C)(C)OC(=O)N1CCC(c2nc3cc(N4Cc5cc(N6CCCCC6)ccc5C4=O)ccc3[nH]2)CC1 [Example 42, tert-butyl 4-(5-(1-oxo-5-(piperidin-1-yl)-1,3-dihydro-2H-isoindol-2-yl)-1H-benzimidazol-2-yl)piperidine-1-carboxylate] | 980 | 1041 |
| O=C1c2ccc(N3CCCCC3)cc2CN1c1ccc2[nH]c(C3CCOCC3)nc2c1 [Example 43, 5-(piperidin-1-yl)-2-(2-(tetrahydro-2H-pyran-4-yl)-1H-benzimidazol-5-yl)isoindolin-1-one] | 1087 | 1153 |
| O=C1c2ccc(N3CCCCC3)cc2CN1c1ccc2[nH]c(C3CCCCC3)nc2c1 [Example 44, 2-(2-cyclohexyl-1H-benzimidazol-5-yl)-5-(piperidin-1-yl)isoindolin-1-one] | 1071 | 1141 |
| O=C1c2ccc(N3CCCCC3)cc2CN1c1ccc2[nH]c(-c3ccccn3)nc2c1 [Example 47, 5-(piperidin-1-yl)-2-(2-(pyridin-2-yl)-1H-benzimidazol-5-yl)isoindolin-1-one] | 1115 | 1348 |
| CC(C)Oc1ccc(-c2nc3cc(N4Cc5cc(N6CCCCC6)ccc5C4=O)ccc3[nH]2)cc1 [Example 48, 2-(2-(4-isopropoxyphenyl)-1H-benzimidazol-5-yl)-5-(piperidin-1-yl)isoindolin-1-one] | 1182 | 1408 |
| CCCNC(=O)COc1ccc(-c2nc3cc(N4Cc5cc(N6CCOCC6)ccc5C4=O)ccc3[nH]2)cc1 [Example 49, 2-(4-(5-(5-(morpholin-4-yl)-1-oxo-1,3-dihydro-2H-isoindol-2-yl)-1H-benzimidazol-2-yl)phenoxy)-N-propylacetannide] | 1382 | 890 |
| COC(=O)COc1ccc(-c2nc3cc(N4Cc5cc(N6CCOCC6)ccc5C4=O)ccc3[nH]2)cc1 [Example 50, methyl (4-(5-(5-(morpholin-4-yl)-1-oxo-1,3-dihydro-2H-isoindol-2-yl)-1H-benzimidazol-2-yl)phenoxy)acetate] | 1126 | 1717 |
| O=C(O)COc1ccc(-c2nc3cc(N4Cc5cc(N6CCOCC6)ccc5C4=O)ccc3[nH]2)cc1 [Example 51, (4-(5-(5-(morpholin-4-yl)-1-oxo-1,3-dihydro-2H-isoindol-2-yl)-1H-benzimidazol-2-yl)phenoxy)acetic acid] | 963 | 1279 |
| O=C(COc1ccc(-c2nc3cc(N4Cc5cc(N6CCOCC6)ccc5C4=O)ccc3[nH]2)cc1)OCc1ccccc1 [Example 52, benzyl (4-(5-(5-(morpholin-4-yl)-1-oxo-1,3-dihydro-2H-isoindol-2-yl)-1H-benzimidazol-2-yl)phenoxy)acetate] | 937 | 973 |
| O=C1c2ccc(N3CCOCC3)cc2CN1c1ccc2[nH]c(-c3ccc(O)cc3)nc2c1 [Example 53, 2-(2-(4-hydroxyphenyl)-1H-benzimidazol-5-yl)-5-(morpholin-4-yl)isoindolin-1-one] | 880 | 2812 |
| CCCCCCOc1ccc(-c2nc3cc(N4Cc5cc(N6CCOCC6)ccc5C4=O)ccc3[nH]2)cc1 [Example 54, 2-(2-(4-(hexyloxy)phenyl)-1H-benzimidazol-5-yl)-5-(morpholin-4-yl)isoindolin-1-one] | 838 | — |
| O=C1c2ccc(N3CCOCC3)cc2CN1c1ccc2[nH]c(-c3ccc(OCc4ccccc4)cc3)nc2c1 [Example 55, 2-(2-(4-(benzyloxy)phenyl)-1H-benzimidazol-5-yl)-5-(morpholin-4-yl)isoindolin-1-one] | 1092 | — |
| O=C1c2ccc(N3CCOCC3)cc2CN1c1ccc2[nH]c(-c3ccc(Cl)cc3)nc2c1 [Example 56, 2-(2-(4-chlorophenyl)-1H-benzimidazol-5-yl)-5-(morpholin-4-yl)isoindolin-1-one] | 1185 | 897 |
| CCOc1ccc(Cc2nc3cc(N4Cc5cc(N6CCOCC6)ccc5C4=O)ccc3[nH]2)cc1 [Example 57, 2-(2-(4-ethoxybenzyl)-1H-benzimidazol-5-yl)-5-(morpholin-4-yl)isoindolin-1-one] | 778 | 1666 |
| CCCOc1ccc(-c2nc3cc(N4Cc5cc(N6CCOCC6)ccc5C4=O)ccc3[nH]2)cc1 [Example 58, 5-(morpholin-4-yl)-2-(2-(4-propoxyphenyl)-1H-benzimidazol-5-yl)isoindolin-1-one] | 994 | 819 |
| CCOc1ccc(-c2nc3cc(N4Cc5cc(N6CCOCC6)ccc5C4=O)ccc3n2C)cc1 [Example 59, 2-(2-(4-ethoxyphenyl)-1-methyl-1H-benzimidazol-5-yl)-5-(morpholin-4-yl)isoindolin-1-one] | 803 | 1301 |
| CCOc1ccc(-c2nc3ccc(N4Cc5cc(N6CCOCC6)ccc5C4=O)cc3n2C)cc1 [Example 60, 2-(2-(4-ethoxyphenyl)-1-methyl-1H-benzimidazol-6-yl)-5-(morpholin-4-yl)isoindolin-1-one] | 770 | 868 |
